Experimental data reported in patent US20070123586A1, “Nitroso derivatives of diphenylamine” (priority 2003, published 2007).
pIC50: −log10 of the molar value.

Legend:
Human LDLs = assay: Antioxidant effect: cupric ion-induced oxidation of human LDL (fluorescence); assay type: biochemical; conditions: human LDL 120 μg/ml, CuCl2, 37° C., fluorescence difference 2 h vs 24 h, from three concentrations
Description: Human LDLs placed in aqueous solution in the presence of cupric ions, become spontaneously oxidized on their protein component, apolipoprotein-B. This oxidation makes the particle fluorescent, which is exploited to measure a pharmacological effect.
The reactions and measurements are performed in black 96-well plates. 10 μl of a solution of the test product dissolved in dimethyl sulfoxide are first mixed with 170 μl of a solution of human LDL at a concentration of 120 μg/ml and 20 μl of 100 μM CuCl2. After stirring, the mixture is incubated for 2 hours at 37° C., and a first fluorescence reading is taken (excitation at 360 nm, reading at 460 nm). The mixture is then incubated for a further 22 hours, to take a second reading under the same conditions. The difference is proportionately smaller the greater the antioxidant power of the test product. Probucol is used as reference product at a concentration of 10 μM.
The concentrations that inhibit 50% (IC50) of the oxidation are prepared from three concentrations of the test product. They are given in Table II below for some of the compounds of the formula I given as examples below.

[1] = Spontaneous nitric oxide release: nitrites+nitrates titrated by Griess colorimetry with nitrate reductase; conditions: test product final concentration 150 μM, incubated four hours at 37° C., pH 7.5 PBS buffer, Griess reagent, OD 540 nm
Description: A solution of a compound of the invention of the formula I spontaneously releases nitric oxide. The nitrite ions resulting therefrom are titrated by colorimetry by means of a specific reagent (Griess). To take account of any release of nitrate ions in addition to the nitrite ions, bacterial nitrate reductase is added to the reaction medium, which makes it possible to reduce the nitrate ions formed.
The reactions and measurements are performed in transparent 96-well plates. The test products are dissolved extemporaneously at a concentration of 3 mM in dimethyl sulfoxide. 95 μl of a reagent comprising nitrate reductase (0.18 U/ml in 0.100 mM pH 7.5, PBS buffer, β-NADPH 210 μM, FAD 5 μM) and 5 μl of the solution of the test product (final concentration of 150 μM) are then introduced into each well. After stirring, the mixture is incubated for four hours at 37° C. The reaction is then quenched by addition of 100 μl of the Griess reagent (Sigma G4410). This reagent is left to act for five minutes at room temperature, and the optical density is then read at 540 nm. This value is proportional to the concentration of nitrites+nitrates in the medium. A calibration range is made for each plate using NaNO2.
The results are expressed in μmol/l (μM) of nitrites+nitrates released in Table I for some of the compounds of the formula I illustrated below.

fatty Zucker rats = assay: Hypotriglyceridaemiant activity in fatty Zucker rats; assay type: in vivo, rat; conditions: 9-week-old male Zucker rats, 200 mg/kg/day p.o. for eight days, after fasting four hours
Description: The compounds were tested on fatty Zucker rats (Zucker L. M. et al., 1961, Fatty a new mutation in the rat, J. Hered., 52: 275-278). This animal is hyperphagic, obese and hyperinsulinaemic. It develops resistance to insulin, it is hyperlipidaemic, and has a large hypertriglyceridaemia.
9-week-old male Zucker rats were treated for eight days with the compounds of Example 2 and Example 5 at a dose of 200 mg/kg/day p.o. After fasting for four hours, a blood sample is taken to recover the plasma. […] The compound of Example 5 has a 21% […] effect (p<0.05) and reduces insulin by 45% (p<0.05).

| melting point [°C] | SMILES | pIC50 (Human LDLs) | Nitrites—Nitrates released [1] [µM] | reduction in triglycerides (plasma) (fatty Zucker rats) [%] | reduction of insulinaemia (plasma insulin) (fatty Zucker rats) [%] |
| --- | --- | --- | --- | --- | --- |
| 169 to 171 | COc1ccc(N(N=O)c2ccc(C(=O)O)cc2)cc1 [Example 2, 4-[(4-Methoxyphenyl)(nitroso)amino]benzoic acid] | 4.77 | 87 | 58 | 47 |
|  | O=NN(c1ccc(C(=O)O)cc1)c1ccc(C(F)(F)F)cc1 [Example 5, 4-{Nitroso[4-(trifluoromethyl)phenyl]amino}benzoic acid] |  | 108 | 21 | 45 |
| 88 to 90 | COc1ccc(N(N=O)c2ccc(C#N)cc2)cc1 [Example 6, 4-[(4-Methoxyphenyl)(nitroso)amino]benzonitrile] |  | 43 |  |  |
|  | COc1ccc(N(N=O)c2ccc(CO)cc2)cc1 [Example 8, {4-[(4-Methoxyphenyl)(nitroso)amino]phenyl}methanol] | 4.74 | 88 |  |  |
|  | CCOC(=O)c1ccc(N(N=O)c2ccc(C#N)cc2)cc1 [Example 10] | 5.21 | 76 |  |  |
|  | CCOC(=O)c1ccc(N(N=O)c2ccc(S(C)(=O)=O)cc2)cc1 [Example 12] |  | 38 |  |  |
|  | O=NN(c1ccc(C(=O)O)cc1)c1ccc([N+](=O)[O-])cc1 [Example 13] | 5.34 | 86 |  |  |
|  | N#Cc1ccc(N(N=O)c2ccc(C(=O)O)cc2)cc1 [Example 14] |  | 69 |  |  |
|  | CS(=O)(=O)c1ccc(N(N=O)c2ccc(C(=O)O)cc2)cc1 [Example 15] |  | 88 |  |  |
|  | COc1ccc(N(N=O)c2ccc(CC(=O)O)cc2)cc1 [Example 17] | 4.94 | 58 |  |  |
|  | COc1ccc(N(N=O)c2ccc(C(C)=O)cc2)cc1 [Example 18] |  | 81 |  |  |
|  | O=NN(c1ccc(F)cc1)c1ccc(C(=O)O)cc1 [Example 19] |  | 79 |  |  |
|  | O=NN(c1ccc(C(=O)O)cc1)c1ccc(C(=O)O)cc1 [Example 30, 4,4′-(Nitrosoimino)dibenzoic acid] |  | 58 |  |  |
|  | COc1ccc(N(N=O)c2ccc(C(N)=O)cc2)cc1 [Example 42] |  | 79 |  |  |
